Like-named read-outs stand apart in the source and are kept apart here. Residues, ends and D or L forms follow the SMILES beside them.
Tests used:
ACE = settings: read-out: IC50 (ACE inhibition), cited from earlier work
SHR = settings: cited from earlier work
[1] = molecular target: Angiotensin converting enzyme (ACE) (Homo sapiens, UniProt P12821); experiment: biochemical
[2] = test system: Ehrlich ascites sarcoma cells; settings: Ehrlich ascites sarcoma cells in mice; cited from earlier work
Excerpt: Adlay seed (soft-shelled Job’s tears, Coix larchryma-jobi L. var. ma-yuen Stapf) has been used in traditional Chinese medicine and has been a nourishing food for more than a thousand years. It has been used to treat warts, chapped skin, rheumatism, neuralgia, hypertension as well as being an anti-inflammatory and anticancer agent. An increasing effort had been concentrated on finding active components from adlay. […] The main ingredient of ...

[3] = test system: spontaneously hypertensive rats (SHR); settings: oral, dose not given, 4 h after administration, tail-cuff, n = 6
[4] = from haruan myofibrillar protein hydrolysate (proteinase K and thermolysin)

Angiotensin converting enzyme (ACE), sequence (P12821 30-1306, species assumed): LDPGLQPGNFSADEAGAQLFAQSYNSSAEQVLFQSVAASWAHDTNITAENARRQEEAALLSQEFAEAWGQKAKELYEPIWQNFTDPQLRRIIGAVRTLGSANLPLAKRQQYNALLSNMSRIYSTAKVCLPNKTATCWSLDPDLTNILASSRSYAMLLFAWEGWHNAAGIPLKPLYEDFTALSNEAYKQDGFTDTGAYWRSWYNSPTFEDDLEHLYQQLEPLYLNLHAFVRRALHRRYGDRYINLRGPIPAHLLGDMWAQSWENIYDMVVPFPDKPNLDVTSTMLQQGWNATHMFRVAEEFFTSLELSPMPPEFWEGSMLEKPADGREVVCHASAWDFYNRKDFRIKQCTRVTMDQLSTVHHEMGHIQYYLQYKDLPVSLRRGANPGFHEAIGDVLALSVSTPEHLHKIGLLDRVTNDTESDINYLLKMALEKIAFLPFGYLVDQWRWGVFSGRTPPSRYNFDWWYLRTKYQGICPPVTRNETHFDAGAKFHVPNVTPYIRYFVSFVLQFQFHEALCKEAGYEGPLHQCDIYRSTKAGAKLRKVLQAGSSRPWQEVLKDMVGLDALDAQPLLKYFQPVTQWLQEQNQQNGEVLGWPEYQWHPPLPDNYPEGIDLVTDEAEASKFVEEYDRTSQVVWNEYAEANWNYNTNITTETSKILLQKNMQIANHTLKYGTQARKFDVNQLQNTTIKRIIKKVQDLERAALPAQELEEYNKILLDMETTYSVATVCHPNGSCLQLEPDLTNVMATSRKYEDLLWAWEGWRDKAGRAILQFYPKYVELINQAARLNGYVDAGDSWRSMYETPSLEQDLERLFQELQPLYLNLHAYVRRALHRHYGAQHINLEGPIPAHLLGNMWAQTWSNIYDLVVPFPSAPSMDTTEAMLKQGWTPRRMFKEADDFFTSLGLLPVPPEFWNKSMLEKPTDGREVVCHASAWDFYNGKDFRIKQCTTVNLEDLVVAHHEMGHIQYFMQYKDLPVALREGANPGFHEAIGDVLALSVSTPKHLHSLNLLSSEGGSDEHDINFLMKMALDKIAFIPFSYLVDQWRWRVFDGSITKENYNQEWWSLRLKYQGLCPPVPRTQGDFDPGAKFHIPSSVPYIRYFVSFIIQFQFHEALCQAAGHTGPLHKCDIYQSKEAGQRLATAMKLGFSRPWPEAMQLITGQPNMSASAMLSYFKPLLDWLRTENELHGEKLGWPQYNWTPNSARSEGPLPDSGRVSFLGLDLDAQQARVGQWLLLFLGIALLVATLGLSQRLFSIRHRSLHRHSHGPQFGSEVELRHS

**Q.** With Ala-Tyr as the compound, how does the IC50 (ACE; from corn gluten meal) read?
**A.** Its IC50 is 14200 nM.

**Q.** For AWLHPGAPKVF, which Antihypertensive duration (SHR; single oral, 10 mg/kg) is on record?
**A.** Its Antihypertensive duration is 8 h.

**Q.** And the “Reduction of SBP” value (SHR; single oral, 10 mg/kg, from P. esculenta protein hydrolysate)?
**A.** Its value is “around 30 mmHg”.

**Q.** With `C[C@H](NC(=O)CN)C(=O)N[C@@H](C)C(=O)NCC(=O)NCC(=O)N[C@@H](C)C(=O)N[C@@H](Cc1ccccc1)C(=O)O` [GAAGGAF] (H-GAAGGAF-OH) as the compound, how does the IC50 [1] read?
**A.** Its IC50 is 14.2 µM.

**Q.** With VPAAPPK as the compound, how does the IC50 (ACE; [4]) read?
**A.** The IC50 was 450 nM.

**Q.** With coixenolide [coixenolide (I)] as the compound, how does the Growth-inhibiting activity [2] read?
**A.** The Growth-inhibiting activity was “growth-inhibiting activity”.

**Q.** With NGTWFEPP as the compound, how does the IC50 (ACE; [4]) read?
**A.** Its IC50 is 630 nM.

**Q.** For `C[C@H](CS)C(=O)N1CCC[C@H]1C(=O)O` [captopril], which “Maximal decrease of SBP, positive control” value [3] is on record?
**A.** Its value is “approximately 28.17 mmHg”.

**Q.** For AAATP, which “Decrease of SBP” value (SHR; SHRs, after 8 h administration, from Spanish dry-cured ham) is on record?
**A.** Its value is “around 25.62 mmHg”.
